Assay results from US20230242679A1, “BISPECIFIC ANTIBODY THERAPIES” (priority 2022, published 2023).
“Also recorded” adds a separate entry of the source. Like-named read-outs stand apart in the source and are kept apart here.

How the values were obtained:
[1] = tested on: influenza (H5N1); conditions: Gemmus Pharma in vivo influenza (H5N1) studies; listed as CT01681, monosodium salt; cited from earlier work
[2] = tested on: normal human PBMC; assay: Cytokine release assay in normal human PBMC stimulated with LPS or Poly (I:C); assay type: cell-based; conditions: for Number of cytokines reduced of those analyzed: LPS or Poly(I:C), pooled and individual donor results
[3] = tested on: CD19-targeting CAR T-cells co-cultured with CD19+Raji lymphoma target cells; assay: Cytokine levels in co-culture of CD19 CAR T-cells with Raji cells; assay type: cell-based, human; conditions: for Levels of IL-6 / Levels of TNF-α / Levels of IFN-γ: CAR T-cells:Raji cells 10:1; for Levels of IL-6: FIG. 1A; for Levels of TNF-α: FIG. 1B; for Levels of IFN-γ: FIG. 1C
Source text: The impact of CT01681 on the efficacy of CD19-targeting CAR T-cells in vitro was studied as a surrogate measure of the impact of CTO1681 on T cell function downstream of administering bispecific antibody therapy to a subject. […] CD3 T cells were sorted from one healthy donor PBMCs, stimulated for a short period of time and transduced with CD19 CAR-T lentivirus (LV) containing CD28 and CD3ζ domains. CD19 CAR T-cells were expanded for 6 days and used in the assay. CD19-targeting CD3 T-cells were treated with 5 increasing concentrations of CT01681 (0.36 nM, 1.8 nM, 9 nM, 45 nM, and 225 nM) or vehicle for 30 minutes prior to, and during co-culture with CD19+Raji lymphoma target cells. Media alone, vehicle, and positive control (dexamethasone) wells were included. Following initial treatment, CAR T-cells (Effectors) were co-cultured with fluorescently labeled CD19+Raji tumor cells (Target cells) at 3 different Effector: Target cell ratios (10:1, 5:1 and 1:1) and treated with 5 different concentrations of CT01681 or vehicle for 24 hours. Target cells (Raji cells) were fluorescently labelled with CPD (eBioscience™ Cell Proliferation Dye eFluor™) prior to co-culture to distinguish the Raji cells from the effector cells and allow for analysis of target viability by flow cytometry. Following incubation, supernatant was collected and levels of pro-inflammatory cytokines IL-6 and TNF-α were measured by multiplex Luminex assay and […] was measured via time-resolved fluorescence resonance energy transfer (TR-FRET) assay. These cytokines were selected for quantification as they are early cytokines released following CAR T-cell infusion and bispecific antibody therapy administration in vivo that causes hyperactivation of the immune system resulting in acute systemic inflammation, CRS, multiorgan failure, and possible death. In addition, flow cytometry was used to measure the level of Raji tumor/target cell death following CAR T treatment across CTO1681 conditions to measure impact of CTO1681 with CAR T-cell efficacy. Co-cultures were stained with viability dye 7-AAD for measuring viability.

[4] = tested on: CRS in SCID or humanized mice with Raji-luc tumor cells; assay: Mouse model of Raji-luc tumor with CAR-T induced CRS (Example 2); conditions: IP, BID for 7 days
[5] = tested on: CD19+Raji tumor cells; assay: Raji target cell killing by CD19 CAR T-cells (flow cytometry, 7-AAD); assay type: cell-based, human; conditions: 0.36-225 nM; 24 hours; Effector:Target 10:1, 5:1, 1:1; listed as CT01681, monosodium salt
Source text: The impact of CT01681 on the efficacy of CD19-targeting CAR T-cells in vitro was studied as a surrogate measure of the impact of CTO1681 on T cell function downstream of administering bispecific antibody therapy to a subject. […] CD3 T cells were sorted from one healthy donor PBMCs, stimulated for a short period of time and transduced with CD19 CAR-T lentivirus (LV) containing CD28 and CD3ζ domains. CD19 CAR T-cells were expanded for 6 days and used in the assay. CD19-targeting CD3 T-cells were treated with 5 increasing concentrations of CT01681 (0.36 nM, 1.8 nM, 9 nM, 45 nM, and 225 nM) or vehicle for 30 minutes prior to, and during co-culture with CD19+Raji lymphoma target cells. Media alone, vehicle, and positive control (dexamethasone) wells were included. […] Following incubation, supernatant was collected and levels of pro-inflammatory cytokines IL-6 and TNF-α were measured by multiplex Luminex assay and […] was measured via time-resolved fluorescence resonance energy transfer (TR-FRET) assay. These cytokines were selected for quantification as they are early cytokines released following CAR T-cell infusion and bispecific antibody therapy administration in vivo that causes hyperactivation of the immune system resulting in acute systemic inflammation, CRS, multiorgan failure, and possible death. […]

[6] = tested on: influenza (H1N1); assay type: in vivo, mice; conditions: for IL-2 in vivo / IL-6 in vivo / IL-10 in vivo: CytoAgents in vivo influenza (H1N1) studies
[7] = listed as CT01681, monosodium salt
[8] = LPS, 24 h supernatant, CTO1681 750 μM
[9] = Poly(I:C), 24 h supernatant, CTO1681 750 μM
[10] = Effector:Target 10:1, 0.36-225 nM, 24 hours, Luminex

## CC#CC[C@H](C)[C@H](O)/C=C/[C@@H]1[C@H]2c3cccc(CCCC(=O)[O-])c3O[C@H]2C[C@H]1O.[Na+] [CTO1681, (+)-[1R, 2R, 3aS, 8bS]-2,3,3a,8b-tetrahydro-2-hydroxy-1-[(E)-(3S,4S)-3-hydroxy-4-methyl-1-octen-6-ynyl)-1Hcyclopenta[b]benzofuran-5-butanoic acid, monosodium salt]
[1]
  IL-2 in vivo: reduced; also recorded: significantly suppressed
  IL-6 in vivo: reduced; also recorded: significantly suppressed
  IL-8 in vivo: reduced; also recorded: significantly suppressed
  IL-10 in vivo: reduced; also recorded: significantly suppressed
[2]; LPS or Poly(I:C) stimulated PBMC, statistically significant
  Nominal reduction in ex vivo production of IFNα: less than 2 fold
[2]; [7]
  Number of cytokines reduced of those analyzed: 21 of the 29
[2]; monosodium salt
  Number of cytokines reduced of those analyzed: 21
[2]; [8]
  Cytokine response CCL2 (MCP-1) (significant reduction): YES
  Cytokine response CCL3 (MIP1 α) (significant reduction): YES
  Cytokine response CCL5 (RANTES) (significant reduction): YES
  Cytokine response CXCL9 (MIG) (significant reduction): YES
  Cytokine response CXCL10 (IP-10) (significant reduction): YES
  Cytokine response FGF (significant reduction): YES
  Cytokine response GM-CSF (significant reduction): YES
  Cytokine response IFN-α2 (significant reduction): YES
  Cytokine response IFN-γ (significant reduction): YES
  Cytokine response IL-1α (significant reduction): YES
  Cytokine response IL-1β (significant reduction): YES
  Cytokine response IL-4 (significant reduction): YES
  Cytokine response IL-5 (significant reduction): YES
  Cytokine response IL-9 (significant reduction): YES
  Cytokine response IL-12 (significant reduction): YES
  Cytokine response IL-13 (significant reduction): YES
  Cytokine response IL-15 (significant reduction): YES
  Cytokine response IL-17 (significant reduction): YES
  Cytokine response IL-18 (significant reduction): YES
  Cytokine response PDGF (significant reduction): YES
  Cytokine response TNF-α (significant reduction): YES
[2]; [9]
  Cytokine response CCL2 (MCP-1) (significant reduction): YES
  Cytokine response CCL5 (RANTES) (significant reduction): YES
  Cytokine response CXCL9 (MIG) (significant reduction): YES
  Cytokine response CXCL10 (IP-10) (significant reduction): YES
  Cytokine response IFN-α2 (significant reduction): YES
  Cytokine response IFN-γ (significant reduction): YES
  Cytokine response IL-1α (significant reduction): YES
  Cytokine response IL-1β (significant reduction): YES
  Cytokine response IL-4 (significant reduction): YES
  Cytokine response IL-5 (significant reduction): YES
  Cytokine response IL-12 (significant reduction): YES
  Cytokine response IL-13 (significant reduction): YES
  Cytokine response IL-15 (significant reduction): YES
  Cytokine response IL-18 (significant reduction): YES
  Cytokine response PDGF (significant reduction): YES
  Cytokine response TNF-α (significant reduction): YES
[3]; [7]
  Levels of IL-6: dose-dependently lowers
  Levels of TNF-α: dose-dependently lowers
  Levels of IFN-γ: dose-dependently lowers
[3]; monosodium salt
  Levels of IL-6: dose-dependently reduced
  Levels of TNF-α: dose-dependently reduced
  Levels of IFN-γ: dose-dependently reduced
[3]; [10]
  Maximum reduction of IL-6: ~23%
  Maximum reduction of TNF-α: approximately 50%
[3]; Effector:Target 10:1, 0.36-225 nM, 24 hours, TR-FRET
  Maximum reduction of IFN-γ: ~26%
[3]; three CAR-T:Raji ratios (10:1, 5:1, 1:1), FIG. 1D
  IL-6 with increasing concentrations: reduction
[3]; three CAR-T:Raji ratios (10:1, 5:1, 1:1), FIG. 1E
  TNF-α with increasing concentrations: reduction
[3]; three CAR-T:Raji ratios (10:1, 5:1, 1:1), FIG. 1F
  IFN-γ with increasing concentrations: reduction
[4]
  Survival benefits versus dexamethasone: greater survival benefits
[5]
  Effect on tumor/target cell killing efficacy of CD19 CAR T-cells: does not interfere; also recorded: absence of an effect; also recorded: did not impact or interfere
[6]; [7]
  IL-2 in vivo: significantly suppressed
  IL-6 in vivo: significantly suppressed
  IL-10 in vivo: significantly suppressed
[6]; monosodium salt
  IL-2 in vivo: reduced
  IL-6 in vivo: reduced
  IL-10 in vivo: reduced
[6]; mouse, in vivo
  IL-8 in vivo: significantly suppressed
[6]; mouse, in vivo, listed as CT01681, monosodium salt
  IFN-α concentrations in vivo: no significant repression
[6]; mouse, in vivo, monosodium salt
  IFN-α concentrations in vivo: not suppressed
